According to patent publication US11419834B2, “Methods for treating diseases or infections caused by or associated with H. pylori using a halogenated salicylanilide” (Rhode Island Hospital, priority 2019, dated 2022):
Values after ≈ are worked out from the molar mass of the structure shown. “Also recorded” adds a separate entry of the source.

Tests used:
[1] = system: H. pylori bacteria (strain 60190); experiment: Time to kill assay; type: cell-based, Helicobacter pylori; settings: 4×MIC (1 μg/mL); 10^9 cells/mL
Method: Niclosamide was therefore tested time to kill assays were used to confirm the killing properties of niclosamide against H. pylori. Agar grown H. pylori bacteria (strain 60190) were suspended in fresh Mueller Hinton Broth (MHB) with 10% Fetal bovine serum (FBS) to a density of 10^9 cells/mL and placed into 10 mL tubes (BD Biosciences). […] Aliquots were periodically drawn from the tubes, serially diluted and plated onto Brucella agar (BD Biosciences) supplemented with 10% FBS. CFUs were counted after a 3-day incubation and assays were carried out in duplicate. […] Of note, clarithromycin, a commonly prescribed antibiotic for H. pylori treatment, is also bacteriostatic (De Francesco et al. World journal of gastrointestinal pathophysiology 2, 35 (2011)).

[2] = system: H. pylori vacA gene expression; experiment: RT-PCR study on VacA toxin expression; type: cell-based, Helicobacter pylori; settings: sub-MIC level of 200 ng/mL, 3 days
H. pylori infection = experiment: Galleria mellonella in vivo infection model; settings: 25 mg/kg, injected 2 hours after H. pylori inoculation
Method: Assays were performed as described by Giannouli et al. (BMC Microbiol. 2014 Aug. 27; 14:228), an alternative model host for the evaluation of antimicrobial agents against H. pylori infection. Twelve randomly selected G. mellonella larvae (Vanderhorst, Inc., St. Mary's, OH, USA) between 300-350 mg were used for each group in the experiment. H. pylori cells were washed with PBS and diluted to OD600 nm=0.3, before inoculation into G. mellonella larvae. A 10 μL inoculum was injected into the last left proleg using a 10 μL Hamilton syringe. After 2 hours, compounds were administered at into the last right proleg and the wax moths were incubate at 37° C. Niclosamide was administered at a concentration of 25 mg/kg. Clarithromycin administered at a concentration of 10 mg/kg was used as a comparator. Three control groups were included (1) injected with PBS only; (2) inoculated with H. pylori but treated with sham injections; and (3) no manipulation. G. mellonella survival was evaluated up to 120 hours. The surviving larvae were monitored every 24 hours and were considered dead if they were unresponsive to external stimuli (touch). Killing curves and differences in survival were analysed by the Kaplan-Meier method using GraphPad Prism version 6.04 (GraphPad Software, La Jolla, Calif., USA). Statistical analysis (Kruskal-Wallis test) was carried out using the same program.

[3] = system: IL-8 secretion from MKN-28 cells co-cultured with H. pylori; experiment: IL-8 secretion, real-time RT-PCR; type: cell-based; settings: 4×MIC, 1.0 μg/mL, 24 hour incubation, H. pylori infected MKN-28 cells
Method: Real-Time (RT-PCR) was carried out to determine whether niclosamide has an inhibitory role in IL-8 secretion. MKN-28 cells were co-cultured with H. pylori (MOI=100) in the presence or absence of a test compound. At 24 hours, RNA was isolated from the infected host cells. cDNA was synthesized using the Verso cDNA (Invitrogen) synthesis kit according to manufacturer instructions. Quantitative real-time reactions were carried out in a Bio-Rad iTaq universal SYBR (Bio-Rad, Hercules, Calif. USA) one-step kit and a CFX98 real-time PCR cycler as described by Zheng et al. (Future Med. Chem. 2018, February; 10(3):283-296). The relative gene expression was calculated from Cq values using a ΔΔCq method.

H. pylori (strain 60190) = experiment: Effect of pH on MIC (broth microdilution); type: cell-based, Helicobacter pylori
Method: The pH was adjusted to acidic condition with 1 N HCl. The minimal bactericidal concentration (MBC) was determined by plating 5 μL of broth culture from the MIC assay onto Müller-Hinton agar (BD Biosciences) supplemented with 10% FBS. After 72 h, the lowest concentration at which colonies were not observed was reported as the MBC.

H. pylori bacteria = experiment: Scanning electron microscopy of morphology; type: cell-based, Helicobacter pylori; settings: 2 hours
H. Pylori 51932 = experiment: Broth microdilution assay, MIC; type: cell-based; settings: Helicobacter pylori; strain H. Pylori 51932
[4] = system: H. pylori reference strain 60190 (ATCC 49503); experiment: Broth microdilution assay, MIC; type: cell-based; settings: Helicobacter pylori, ATCC49503, 72 h; H. pylori strain 60190; Müller-Hinton broth + 10% FBS, 3 days

O=C(Nc1ccc([N+](=O)[O-])cc1Cl)c1cc(Cl)ccc1O [Niclosamide, niclosamide]
killing kinetics (bacteriostatic or bactericidal) [1]: bacteriostatic
effect on VacA expression compared to housekeeping gene rpoB [2]: down-regulated vacA gene; also recorded: downregulates VacA expression
survival of wax-moth larvae up to 120 hours (H. pylori infection): About 60%
effect on IL-8 secretion [3]: inhibited IL-8 secretion
MIC (H. pylori (strain 60190); Helicobacter pylori, acidic pH, tested between pH 7.0 to 5.2, read-out: MIC in low pH): 0.25 µg/mL (≈ 0.764 µM)
change of MIC at acidic pH compared to pH 7.0 (H. pylori (strain 60190); pH 7.0 to 5.2): remained the same
morphology (helical shape) by SEM (H. pylori bacteria; 1× MIC): shortened
morphology by SEM (H. pylori bacteria; 4× and 8× MIC): Cocco-bacillary
effect on bacterial flagella by SEM (H. pylori bacteria; niclosamide treatment): flagellar deformation
MIC (H. Pylori 51932): 0.5 µg/mL (≈ 1.53 µM)
MIC [4]: 0.25 µg/mL
